Assay results reported in patent US10159656B2, “Methods for use of epinephrine fine particles for treatment of conditions responsive to epinephrine” (NOVA SOUTHEASTERN UNIVERSITY, priority 2013, dated 2018).

What was measured:
[1] = one cycle at 30,000 Psi
Protocol: The processed EpiBit were tested for stability and removal of isopropyl alcohol using FT-IR spectrometer, spectrum 100 (PerkinElmer, Waltham, Mass.) scanned from 4000-650 cm^−1.

[2] = one cycle at 30,000 Psi; remark: listed apart in the source
Protocol: Also, the processed EpiBit were tested for purity, stability, and crystallinity changes using Differential Scanning calorimetry (DSC) 4000 (PerkinElmer, Waltham, Mass.) that was calibrated using an indium standard and heated from 30 to 300° C. at rate of 10° C./min and with a nitrogen purge of 20 mL/min.

[3] = after processing, one cycle at 30,000 Psi
[4] = Protocol: The average particles size (by volume) of EpiBit before processing was measured using laser diffraction technique using Mastersizer (Malvern Instruments Inc, Westborough, Mass.).
[5] = EpiBit before processing, by volume, n=6, text
[6] = EpiBit before processing, by volume, listed as EpiBit crystals before processing

Compound | degradation after processing (FT-IR spectra before and after) [1] | degradation or crystallinity change after processing (DSC) [2] | particles size distribution by intensity ([3]; n=3) | particles size distribution by volume ([3]; n=3) | Z-potential ([3]; listed as EpiBit crystals after processing) | 10th percentile (Dv0.1) particle size [4, 5] | median (Dv0.5) particle size [4, 5] | D (4, 3) mean volume particle size [4, 6] | D(0.9) particle size [4, 6] | reduction of particles size of EpiBit crystals ([4]; after versus before processing)
CNC[C@H](O)c1ccc(O)c(O)c1.O=C(O)C(O)C(O)C(=O)O [EpiBit After Processing, epinephrine bitartrate microcrystals] | no evidence of EpiBit degradation after processing | no evidence of EpiBit degradation or crystallinity change after processing | 2.4±0.4 μm | 2.5±0.4 μm | −4.5±1.4 mV | – | – | – | – | –
CNC[C@H](O)c1ccc(O)c(O)c1.O=C(O)C(O)C(O)C(=O)O [EpiBit Before Processing, (−)-Epinephrine (+) bitartrate] | – | – | – | – | – | 39.8±3.0 nm | 113.6±9.1 nm | 131.8±10.5 μm | 254.8±20.1 μm | up to 55 folds
